Measurements taken from patent US20240197666A1, “DITERPENOID COMPOUNDS THAT ACT ON PROTEIN KINASE C (PKC)” (K-Gen Therapeutics, Inc., priority 2021, published 2024).
Like-named read-outs stand apart in the source and are kept apart here.

Key:
A549 cell line = experiment: Proliferation of A549 (CellTiter Glo); format: cell-based; conditions: read-out: IC50 μM (A549 Cell Line)
Description: The diterpenoid compounds were tested in A549, a non-small cell lung cancer cell line harboring a K-Ras activating mutation. Briefly, A549 cells at a density of 1,000 cells/well were seeded in 96-well plates and incubated at 37° C. for 24 hours. A series of different concentrations of compound stocks (500×) were prepared by 3-fold serial dilution in DMSO. These compounds were further diluted in culture media and then added to cells so that the final DMSO concentration was not exceeding 0.25%. After 96 hours of incubation, 50 μL of CellTiter Glo reagent (Promega) was added to each well and luminescence was measured after 10 minutes using EnVision (PerkinElmer). Luminescence from cells treated with DMSO alone was set as Max and % of inhibition was calculated as follows: Inhibition %=(Max-Sample value)/Max×100. Data was analyzed using XL-fit software (ID Business Solutions Ltd.) and IC50, relative IC50, and % of top inhibition was calculated. Some of the compounds in this disclosure were very potent in blocking proliferation of A549 lung cancer cells at low nM range. In addition, potency of inhibiting A549 proliferation correlated well with its binding affinity to PKCs for this series of compounds. In other words, higher affinity binders had stronger inhibitory effects on A549 proliferation. This further support the notion that activation, rather than inhibition, of certain PKC isoforms is required to block proliferation of cancer cells, some of which may harbor K-Ras mutations. This is in sharp contrast to previous literature and common belief that inhibition of PKC is necessary to block cancer cell growth (Kang, 2014, New Journal of Science, 2014:1-36). Data presented here is in agreement with recent findings that many loss-of-function but not gain-of-function mutations of PKC isoforms have been identified in many human cancers (Antal et al., 2015, Cell, 160:489-502).

human PBMC cells = experiment: Cytokine/chemokine gene expression in human PBMC (TaqMan); format: cell-based; conditions: 4 h, 1 μM;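 as to Gene Relative Expression CCL2: 2^-ΔΔCt fold change vs DMSO control normalized to 18S and GAPDH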;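 as to Gene Relative Expression GM-CSF: 2^-ΔΔCt fold change vs DMSO control normalized to 18S and GAPDH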;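 as to Gene Relative Expression IFN-α: 2^-ΔΔCt fold change vs DMSO control normalized to 18S and GAPDH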;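 as to Gene Relative Expression IFNγ: 2^-ΔΔCt fold change vs DMSO control normalized to 18S and GAPDH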
Description: Each treatment condition was performed in duplicates.

[1] = Homo sapiens, A549, 96 hours, CellTiter Glo

CC1=C[C@H]2[C@@]3(O)[C@H](C)C[C@]4(OC(=O)[C@@H](N)CC5CCC5)[C@H]([C@@H]3C=C(CO)C[C@]2(O)C1=O)C4(C)C
IC50 (A549 cell line; Homo sapiens, A549, 96 h): 1 to 2 µM

CC1=C[C@H]2[C@@]3(O)[C@H](C)C[C@]4(OC(=O)[C@@H](N)C56CC(F)(C5)C6)[C@H]([C@@H]3C=C(CO)C[C@]2(O)C1=O)C4(C)C
IC50 (A549 cell line; 96 hours, CellTiter Glo): 10 to 30 µM

CC1=C[C@H]2[C@@]3(O)[C@H](C)C[C@]4(OC(=O)C(Cc5ccccc5)C(=O)O)[C@H]([C@@H]3C=C(CO)C[C@]2(O)C1=O)C4(C)C (stereo partly shown)
IC50 (A549 cell line; Homo sapiens, A549, 96 h): 1 to 2 µM

CC1=C[C@H]2[C@@]3(O)[C@H](C)C[C@]4(OC(=O)CCc5c[nH]c6ncccc56)[C@H]([C@@H]3C=C(CO)C[C@]2(O)C1=O)C4(C)C
IC50 (A549 cell line; Homo sapiens, A549, 96 h): 2 to 5 µM

CC1=C[C@H]2[C@@]3(O)[C@H](C)C[C@]4(OC(=O)[C@H](O)Cc5ccccc5)[C@H]([C@@H]3C=C(CO)C[C@]2(O)C1=O)C4(C)C
IC50 (A549 cell line; Homo sapiens, A549, 96 h): 2 to 5 µM

CC1=C[C@H]2[C@@]3(O)[C@H](C)C[C@]4(OC(=O)[C@H](CC5CCCCC5)N(C)C)[C@H]([C@@H]3C=C(CO)C[C@]2(O)C1=O)C4(C)C
IC50 (A549 cell line; Homo sapiens, A549, 96 h): 0.6 to 1 µM

CSCC[C@H](N)C(=O)O[C@@]12C[C@@H](C)[C@@]3(O)[C@@H](C=C(CO)C[C@]4(O)C(=O)C(C)=C[C@@H]34)[C@@H]1C2(C)C
IC50 (A549 cell line; Homo sapiens, A549, 96 h): 5 to 10 µM

CC1=C[C@H]2[C@@]3(O)[C@H](C)C[C@]4(OC(=O)[C@@H](N)C5Cc6ccccc6C5)[C@H]([C@@H]3C=C(CCl)C[C@]2(O)C1=O)C4(C)C
IC50 (A549 cell line; 96 hours, CellTiter Glo): 0.06 to 0.1 µM

CCCCCCCCCCCCCCCCCCC(CC(=O)O[C@@]12C[C@@H](C)[C@@]3(O)[C@@H](C=C(CO)C[C@]4(O)C(=O)C(C)=C[C@@H]34)[C@@H]1C2(C)C)C(=O)O (stereo partly shown)
IC50 (A549 cell line; Homo sapiens, A549, 96 h): 5 to 10 µM

CC1=C[C@H]2[C@@]3(O)[C@H](C)C[C@]4(OC(=O)[C@@H](N)CCCCCCc5ccccc5)[C@H]([C@@H]3C=C(COC(=O)[C@@H](N)C(C)C)C[C@]2(O)C1=O)C4(C)C
IC50 (A549 cell line; [1]): 0.01 to 0.03 µM

CC1=C[C@H]2[C@@]3(O)[C@H](C)C[C@]4(OC(=O)[C@@H](N)CC5CCCC5)[C@H]([C@@H]3C=C(CO)C[C@]2(O)C1=O)C4(C)C
IC50 (A549 cell line; Homo sapiens, A549, 96 h): 0.1 to 0.2 µM

CC1=C[C@H]2[C@@]3(O)[C@H](C)C[C@]4(OC(=O)[C@@H](N)C56CC(C(F)(F)F)(C5)C6)[C@H]([C@@H]3C=C(CO)C[C@]2(O)C1=O)C4(C)C
IC50 (A549 cell line; [1]): 0.06 to 0.1 µM

CC1=C[C@H]2[C@@]3(O)[C@H](C)C[C@]4(OC(=O)[C@H](N)C56CC(F)(C5)C6)[C@H]([C@@H]3C=C(CO)C[C@]2(O)C1=O)C4(C)C
IC50 (A549 cell line; 96 hours, CellTiter Glo): 10 to 30 µM

CC1=C[C@H]2[C@@]3(O)[C@H](C)C[C@]4(O)[C@H]([C@@H]3C=C(CO)C[C@]2(O)C1=O)C4(C)C
IC50 (A549 cell line; Homo sapiens, A549, 96 h): > 30 µM

CC1=C[C@H]2[C@@]3(O)[C@H](C)C[C@]4(OC(=O)CCCCCCCCCCC(=O)O)[C@H]([C@@H]3C=C(CO)C[C@]2(O)C1=O)C4(C)C
IC50 (A549 cell line; Homo sapiens, A549, 96 h): 10 to 30 µM

CC1=C[C@H]2[C@@]3(O)[C@H](C)C[C@]4(OC(=O)[C@@H](N)CCS(C)(=O)=O)[C@H]([C@@H]3C=C(CO)C[C@]2(O)C1=O)C4(C)C
IC50 (A549 cell line; Homo sapiens, A549, 96 h): > 30 µM

CCOCc1nc2c(N)nc3ccccc3c2n1CC(C)(C)O [Resiquimod, reference compound]
Gene Relative Expression CCL2 (human PBMC cells): 3.73 | Gene Relative Expression GM-CSF (human PBMC cells): 8.79 | Gene Relative Expression IFN-α (human PBMC cells): 1.47 | Gene Relative Expression IFNγ (human PBMC cells): 1.28 | Gene Relative Expression IL-1β (human PBMC cells): 101.63 | Gene Relative Expression IL-2 (human PBMC cells): 1.21 | Gene Relative Expression IL-6 (human PBMC cells): 487.14 | Gene Relative Expression IL-8 (human PBMC cells): 9.87 | Gene Relative Expression IL-10 (human PBMC cells): 5.65 | Gene Relative Expression IL-12p40 (human PBMC cells): 786.39 | Gene Relative Expression IL-12p70 (human PBMC cells): 2.48 | Gene Relative Expression IL-13 (human PBMC cells): 3.52 | Gene Relative Expression IL-18 (human PBMC cells): 1.33 | Gene Relative Expression ISG15 (human PBMC cells): 14.75 | Gene Relative Expression MIP1a (CCL3) (human PBMC cells): 47.71 | Gene Relative Expression MX1 (human PBMC cells): 17.00 | Gene Relative Expression OAS1 (human PBMC cells): 12.66 | Gene Relative Expression TNF-α (human PBMC cells): 7.38
